Data reported in PubChem BioAssay (NCI).
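Cultured in 96-well plates, cells were exposed to test compound for 48 hours across five concentrations. At the GI50, growth is halved. At the TGI there is no net growth.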

Columns and labels:
Assay in all cases: NCI anticancer screen, dose series, 48 h
TK-10 renal = test system: TK-10 renal
UO-31 renal = test system: UO-31 renal
SW-620 colon = test system: SW-620 colon
OVCAR-8 ovarian = test system: OVCAR-8 ovarian
MDA-MB-435 = test system: MDA-MB-435
HCT-116 colon = test system: HCT-116 colon
OVCAR-5 ovarian = test system: OVCAR-5 ovarian
KM12 colon = test system: KM12 colon
CCRF-CEM leukemia = test system: CCRF-CEM leukemia
SF-539 CNS = test system: SF-539 CNS
A498 renal = test system: A498 renal
UACC-257 melanoma = test system: UACC-257 melanoma
HOP-62 NSCLC = test system: HOP-62 NSCLC
SF-295 CNS = test system: SF-295 CNS
RPMI-8226 leukemia = test system: RPMI-8226 leukemia
786-0 renal = test system: 786-0 renal
ACHN renal = test system: ACHN renal
CAKI-1 renal = test system: CAKI-1 renal
OVCAR-3 ovarian = test system: OVCAR-3 ovarian
SF-268 CNS = test system: SF-268 CNS
HT29 colon = test system: HT29 colon
NCI/ADR-RES ovarian = test system: NCI/ADR-RES ovarian
M14 melanoma = test system: M14 melanoma
UACC-62 melanoma = test system: UACC-62 melanoma
U251 CNS = test system: U251 CNS
SR leukemia = test system: SR leukemia
SNB-19 CNS = test system: SNB-19 CNS
K-562 leukemia = test system: K-562 leukemia
OVCAR-4 ovarian = test system: OVCAR-4 ovarian
MCF7 breast = test system: MCF7 breast
DU-145 prostate = test system: DU-145 prostate
MOLT-4 leukemia = test system: MOLT-4 leukemia
HL-60(TB) leukemia = test system: HL-60(TB) leukemia
PC-3 prostate = test system: PC-3 prostate
NCI-H226 lung = test system: NCI-H226 lung
T-47D breast = test system: T-47D breast
NCI-H460 lung = test system: NCI-H460 lung
SK-MEL-5 melanoma = test system: SK-MEL-5 melanoma
COLO 205 colon = test system: COLO 205 colon
RXF 393 renal = test system: RXF 393 renal
HCT-15 colon = test system: HCT-15 colon
EKVX NSCLC = test system: EKVX NSCLC
SK-MEL-2 melanoma = test system: SK-MEL-2 melanoma
A549 NSCLC = test system: A549 NSCLC
HOP-92 NSCLC = test system: HOP-92 NSCLC
HS 578T breast = test system: HS 578T breast
SN12C renal = test system: SN12C renal
BT-549 breast = test system: BT-549 breast
SK-OV-3 ovarian = test system: SK-OV-3 ovarian
MDA-MB-231 breast = test system: MDA-MB-231 breast
IGROV1 ovarian = test system: IGROV1 ovarian
NCI-H522 lung = test system: NCI-H522 lung
HCC-2998 colon = test system: HCC-2998 colon
SK-MEL-28 melanoma = test system: SK-MEL-28 melanoma
LOX IMVI melanoma = test system: LOX IMVI melanoma
SNB-75 CNS = test system: SNB-75 CNS

SMILES: Cc1nc2ccccn2c1NC(=O)NNC(=S)Nc1ccc(F)cc1
- GI50 (TK-10 renal): > 100 µM
- TGI (TK-10 renal): > 100 µM
- GI50 (UO-31 renal): > 100 µM
- TGI (UO-31 renal): > 100 µM
- GI50 (SW-620 colon): > 100 µM
- TGI (SW-620 colon): > 100 µM
- GI50 (OVCAR-8 ovarian): > 100 µM
- TGI (OVCAR-8 ovarian): > 100 µM
- GI50 (MDA-MB-435): > 100 µM
- TGI (MDA-MB-435): > 100 µM
- GI50 (HCT-116 colon): > 100 µM
- TGI (HCT-116 colon): > 100 µM
- GI50 (OVCAR-5 ovarian): > 100 µM
- TGI (OVCAR-5 ovarian): > 100 µM
- GI50 (KM12 colon): > 100 µM
- TGI (KM12 colon): > 100 µM
- GI50 (CCRF-CEM leukemia): > 100 µM
- TGI (CCRF-CEM leukemia): > 100 µM
- GI50 (SF-539 CNS): > 100 µM
- TGI (SF-539 CNS): > 100 µM
- GI50 (A498 renal): > 100 µM
- TGI (A498 renal): > 100 µM
- GI50 (UACC-257 melanoma): > 100 µM
- TGI (UACC-257 melanoma): > 100 µM
- GI50 (HOP-62 NSCLC): > 100 µM
- TGI (HOP-62 NSCLC): > 100 µM
- GI50 (SF-295 CNS): > 100 µM
- TGI (SF-295 CNS): > 100 µM
- GI50 (RPMI-8226 leukemia): > 100 µM
- TGI (RPMI-8226 leukemia): > 100 µM
- GI50 (786-0 renal): > 100 µM
- TGI (786-0 renal): > 100 µM
- GI50 (ACHN renal): > 100 µM
- TGI (ACHN renal): > 100 µM
- GI50 (CAKI-1 renal): > 100 µM
- TGI (CAKI-1 renal): > 100 µM
- GI50 (OVCAR-3 ovarian): > 100 µM
- TGI (OVCAR-3 ovarian): > 100 µM
- GI50 (SF-268 CNS): > 100 µM
- TGI (SF-268 CNS): > 100 µM
- GI50 (HT29 colon): > 100 µM
- TGI (HT29 colon): > 100 µM
- GI50 (NCI/ADR-RES ovarian): > 100 µM
- TGI (NCI/ADR-RES ovarian): > 100 µM
- GI50 (M14 melanoma): > 100 µM
- TGI (M14 melanoma): > 100 µM
- GI50 (UACC-62 melanoma): > 100 µM
- TGI (UACC-62 melanoma): > 100 µM
- GI50 (U251 CNS): > 100 µM
- TGI (U251 CNS): > 100 µM
- GI50 (SR leukemia): 19.5 µM
- TGI (SR leukemia): > 100 µM
- GI50 (SNB-19 CNS): > 100 µM
- TGI (SNB-19 CNS): > 100 µM
- GI50 (K-562 leukemia): > 100 µM
- TGI (K-562 leukemia): > 100 µM
- GI50 (OVCAR-4 ovarian): > 100 µM
- TGI (OVCAR-4 ovarian): > 100 µM
- GI50 (MCF7 breast): > 100 µM
- TGI (MCF7 breast): > 100 µM
- GI50 (DU-145 prostate): > 100 µM
- TGI (DU-145 prostate): > 100 µM
- GI50 (MOLT-4 leukemia): 20.4 µM
- TGI (MOLT-4 leukemia): > 100 µM
- GI50 (HL-60(TB) leukemia): > 100 µM
- TGI (HL-60(TB) leukemia): > 100 µM
- GI50 (PC-3 prostate): > 100 µM
- TGI (PC-3 prostate): > 100 µM
- GI50 (NCI-H226 lung): > 100 µM
- TGI (NCI-H226 lung): > 100 µM
- GI50 (T-47D breast): > 100 µM
- TGI (T-47D breast): > 100 µM
- GI50 (NCI-H460 lung): > 100 µM
- TGI (NCI-H460 lung): > 100 µM
- GI50 (SK-MEL-5 melanoma): > 100 µM
- TGI (SK-MEL-5 melanoma): > 100 µM
- GI50 (COLO 205 colon): > 100 µM
- TGI (COLO 205 colon): > 100 µM
- GI50 (RXF 393 renal): > 100 µM
- TGI (RXF 393 renal): > 100 µM
- GI50 (HCT-15 colon): > 100 µM
- TGI (HCT-15 colon): > 100 µM
- GI50 (EKVX NSCLC): > 100 µM
- TGI (EKVX NSCLC): > 100 µM
- GI50 (SK-MEL-2 melanoma): > 100 µM
- TGI (SK-MEL-2 melanoma): > 100 µM
- GI50 (A549 NSCLC): > 100 µM
- TGI (A549 NSCLC): > 100 µM
- GI50 (HOP-92 NSCLC): > 100 µM
- TGI (HOP-92 NSCLC): > 100 µM
- GI50 (HS 578T breast): > 100 µM
- TGI (HS 578T breast): > 100 µM
- GI50 (SN12C renal): > 100 µM
- TGI (SN12C renal): > 100 µM
- GI50 (BT-549 breast): > 100 µM
- TGI (BT-549 breast): > 100 µM
- GI50 (SK-OV-3 ovarian): > 100 µM
- TGI (SK-OV-3 ovarian): > 100 µM
- GI50 (MDA-MB-231 breast): > 100 µM
- TGI (MDA-MB-231 breast): > 100 µM
- GI50 (IGROV1 ovarian): > 100 µM
- TGI (IGROV1 ovarian): > 100 µM
- GI50 (NCI-H522 lung): > 100 µM
- TGI (NCI-H522 lung): > 100 µM
- GI50 (HCC-2998 colon): > 100 µM
- TGI (HCC-2998 colon): > 100 µM
- GI50 (SK-MEL-28 melanoma): > 100 µM
- TGI (SK-MEL-28 melanoma): > 100 µM
- GI50 (LOX IMVI melanoma): > 100 µM
- TGI (LOX IMVI melanoma): > 100 µM
- GI50 (SNB-75 CNS): > 100 µM
- TGI (SNB-75 CNS): > 100 µM
